Assay results as given in US20140037583A1, “METHODS AND COMPOSITIONS SUITABLE FOR PREVENTING AND TREATING HYPERLEPTINEMIA” (priority 2011, published 2014).

System: Leptin mRNA in terminally differentiated canine adipocytes
Test: Expression of leptin mRNA in canine adipocytes treated with Equol (quantitative PCR)
Format: cell-based
Conditions: 24 hours, n=3
Protocol: Treatment: Terminally differentiated canine adipocytes were exposed to 200, 25, and 0 uM Equol for 24 hours. Cells were collected for RNA isolation.
RNA Isolation: Treatment cell samples were vortexed and homogenized using a Quiashredder (Qiagen, Valencia, Calif.) column according to manufacturer's directions. The homogenized lysate was collected and 1 equal volume of 64% ethanol was added to it. This mixture was then applied to an RNAqueous™ filter cartridge, (Ambion Inc., Austin, Tex.) 700 uL at a time, and centrifuged for one minute at 10,000 rpm. The cartridge was washed using 700 uL wash solution #1 and 500 uL wash solution #2/3 with centrifugation at 10,000 rpm for one minute for each wash. The filter cartridge was dried by centrifugation (10,000 rpm) for one minute. […] The resulting RNA was DNAse-treated and quantitated in a Beckman DU 640B spectrophotometer (Beckman Coulter, Inc., Brea, Calif.) at 260 nm. Additionally, quantity and quality were assessed using a bioanalyzer (Agilent, Santa Clara, Calif.) according to manufacturer's directions.
Quantitative PCR: All samples were run singularly against each primer/probe set to determine what standard curve(s) should be used. […] Values were normalized to cyclophilin A (PPIA) levels as determined by quantitative PCR. Inductions were calculated from each of the lowest sample's normalized value. […]

Compound: Oc1ccc([C@H]2COc3cc(O)ccc3C2)cc1 [Equol]
- Leptin mRNA expression (normalized to cyclophilin A, induction relative to lowest sample) (25 uM Equol): 2.58
- Leptin mRNA expression (normalized to cyclophilin A, induction relative to lowest sample) (200 uM Equol): 1.40
